Data taken from patent US6410546B1, “Use of MKC-442 in combination with other antiviral agents” (Triangle Pharmaceuticals, Inc., priority 1997, dated 2002).

Experiments:
HIV [1] = details: as reported in the prior art; cited from earlier work
in vivo = assay: in vivo; set-up: species or system rats; details: rat
From the text: In rats, for example, the concentration of MKC-442 in the brain was 100% of that seen in the plasma.

[2] = system: wild-type (drug-sensitive) and several mutant strains of HIV; assay: Cell culture assay systems, inhibition of HIV replication (alone and in drug combinations); type: cell-based
From the text: MKC-442, although a nucleoside analogue, functions as a non-nucleoside reverse transcriptase inhibitor. It is considered an allosteric inhibitor because it appears to exert its activity by binding to an “allosteric position”, i.e., one other than the binding site, of the enzyme.

[3] = Phase I study, single escalating doses: pharmacokinetics and tolerance; type: in vivo, HIV-infected volunteers
From the text: A Phase I study evaluated the pharmacokinetics and tolerance of single escalating doses of MKC-442 in HIV-infected volunteers.

HIV [4] = assay: Phase I/II double-blind, placebo controlled trial of repeated multiple oral doses
Experimental: Preliminary data from a Phase I/II double-blind, placebo controlled trial designed to evaluate the safety and efficacy of repeated multiple oral doses of MKC-442 in HIV-infected patients has now also been evaluated. A total of 49 patients were treated with MKC-442 for up to two months. Doses ranging from 100 mg to 1000 mg twice a day were given to groups of six to eight patients at each dosage level.

Compound | activity against HIV (HIV [1]) | toxicity (HIV [1]) | Kp (in vivo) | penetration into the central nervous system (in vivo) | oral bioavailability (in vivo; po) | combination effect on HIV replication ([2]; three drug combination with AZT and saquinavir) | combination effect on HIV replication ([2]; two drug combination with AZT) | combination effect on HIV replication ([2]; two drug combination with DDI) | potency compared with nevirapine ([2]; wild-type and mutant strains of HIV) | ability to inhibit HIV replication ([2]; wild-type and mutant strains resistant to established non-nucleoside reverse transcriptase inhibitors) | concentrations of the drug in the plasma ([3]; groups receiving higher doses, compared with levels required to suppress 90% of the virus in culture) | tolerance ([3]; single escalating doses, HIV-infected volunteers) | viral load reduction (average) (HIV [4]; 705 mg and 1000 mg twice a day, all patients, after one week) | tolerability (HIV [4]; over 308 patient-weeks of drug exposure, 100 mg to 1000 mg twice a day)
Nc1ccn(C2CSC(CO)O2)c(=O)n1 (racemic) [BCH-189, 2-hydroxymethyl-5-(cytosin-1-yl)-1,3-oxathiolane] | approximately the same activity against HIV as AZT | little toxicity |  |  |  |  |  |  |  |  |  |  |  | 
Nc1nc(=O)n([C@@H]2CS[C@H](CO)O2)cc1F (relative stereo) [FTC, cis-2-hydroxymethyl-5-(5-fluorocytosin-1-yl)-1,3-oxathiolane] | potent HIV activity |  |  |  |  |  |  |  |  |  |  |  |  | 
CCOCn1c(Cc2ccccc2)c(C(C)C)c(=O)[nH]c1=O [MKC-442, 6-benzyl-1-(ethoxymethyl)-5-isopropyluracil] |  |  | 1 | excellent | good | synergistic inhibition | synergistic inhibition | synergistic inhibition | greater potency than nevirapine | retained much of its ability to inhibit HIV replication | mich higher than the levels required to suppress 90% of the virus in culture | generally well tolerated | 96% | well tolerated
